Experiments:
vein of the inner elbow = assay: Vein diameter from visible light images after swabbing, arm stationary (Examples 3 and 4); conditions: for AVERAGE % CHANGE IN VEIN DIAMETER: nine minutes following application; for Diameter Post-Application / Diameter Pre-Application / Percent change (vein diameter): Example 3; for Diameter Post-Application: endpoint image nine minutes following application, concentration as in test agent label; for Diameter Pre-Application: initial image prior to application of test agent (baseline); for Percent change (vein diameter): nine minutes following application versus pre-application; for vasodilation of the vein of the elbow (in words): summary of Table 4, salts at 10 mM;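 for all read-outs here: agents applied to skin over the inner elbow vein with the arm resting still on a table, diameter read in pixels from images taken before and nine minutes after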
Protocol: Studies in Example 2 were performed except that the vein of the inner elbow, the site most frequently used for phlebotomy, was evaluated and vein diameter was measured from enlarged, sequential, visible light images. […] Instead the response to swabbing was recorded with the arm in a stationary position resting on a table top.
The initial image was taken prior to application of each test agent. The endpoint image was taken nine minutes following application of the test agent. The vein diameters were measured in pixels.
The procedure of Example 3 was repeated utilizing swabs impregnated with various salt compounds on one to three adult male and female subjects. Each test compound was applied to the skin overlying the vein of the inner elbow. The initial image was taken prior to application of each test agent. The endpoint image was taken nine minutes following application of the test agent. The vein diameters were measured in pixels.

[1] = system: veins visible on the dorsum of the hand; assay: Peripheral venous filling time after topical application (Example 1); format: in vivo, human; conditions: for VENOUS FILL TIME: average of two subjects; for effect on venous fill time (in words): topical application, dorsum of hand, summary of Table 1
Protocol: Several studies were conducted to determine the effect of topically applied compounds on peripheral venous filling. The same two healthy adult male volunteer subjects were used for each of the studies.
In each study, a baseline value for peripheral venous filling time was determined as follows. Each subject held their outstretched arm vertically with hand directed upwards toward the ceiling for a period of time sufficient to cause the veins visible on the dorsum of the hand to attain their minimum dilation. Then, the subject lowered their hand and held their outstretched arm vertically with hand directed downwards toward the floor for a period of time sufficient to cause the veins visible on the dorsum of the hand to attain their maximum dilation. The time for the veins to attain maximum dilation following the lowering of the hands was measured.
This procedure was repeated following application of a test compound to the site of visible veins on the dorsum of the hands in order to determine the effect of the test compound on venous filling. Longer venous filling times are indicative of vasodilation and increased pooling of blood within the vein.

dorsal hand veins = assay: Infrared thermal imaging of dorsal hand veins after swabbing and hand elevation (Example 2); format: in vivo, human
Protocol: Infrared (IR) thermal imaging utilizing a standardized, calibrated infrared (950 nm wavelength) camera acquiring electronic images and providing color coded maps for testing effects of test vasodilator chemical compounds on dorsal hand veins was performed in three male and two female healthy volunteers. Infrared was utilized to determine the degree to which the test chemical compounds cause vasodilation because infrared provides a measure of thermal gradient and diameter that correlates well with visual indications of increased venous size and with successful first attempt venipuncture. Test agents were applied by swabbing the target area for about 30 seconds. A baseline control without application of any swab or by swabbing with a placebo swab containing no liquid was performed at the start of each test as a basis to compare imaging of the vein dilator dependent filling. IR images were obtained using a standardized, calibrated infrared (950 nm wavelength) camera that acquired an electronic image and provided a color coded thermal map. […] The swab was rubbed onto the dorsal surface of a hand of each subject and then the hand was elevated for 2 minutes after which the hand was returned to a horizontal position. IR imaging was performed on the dorsum of the hand before elevation and at intervals following the return to the horizontal position.

[2] = Example 4, 10 mM, one to three subjects
[3] = Study 1, baseline (none) 54 sec, EtOH 70%, MgCl2 100 mM
[4] = Study 3, baseline (none) 51 sec, EtOH 70%, MgSO4 10 mM
[5] = Study 4, baseline (none) 39 sec, MgSO4 10 mM

Compound: CC(=O)[O-].CC(=O)[O-].[Mn+2] [10 mM Mn acetate, Mn acetate]
- AVERAGE % CHANGE IN VEIN DIAMETER (vein of the inner elbow; [2]): 0.0%

Compound: CCO [EtOH, ethyl alcohol]
- VENOUS FILL TIME [1, 3]: 59 s
- % CHANGE FROM BASELINE (venous fill time) [1, 3]: 9%
- VENOUS FILL TIME [1, 4]: 38 s
- % CHANGE FROM BASELINE (venous fill time) [1, 4]: (−25) %
- decrease in fill time ([1]; study 3, EtOH 70%, versus baseline): 25%
- effect on venous fill time (in words) [1]: no effect on venous fill time

Compound: CC(C)O [Isopropyl alcohol, isopropyl alcohol, reference compound]
- VENOUS FILL TIME [1, 5]: 69 s
- % CHANGE FROM BASELINE (venous fill time) [1, 5]: 76%
- effect on venous fill time (in words) [1]: increased venous fill time
- effect on dorsal hand veins on IR examination (in words), early (dorsal hand veins; Example 2a, compared to dry swab control, 30 seconds following return to horizontal, 70% isopropyl alcohol): initial vasoconstriction with reduced filling of the veins on the dorsum of the hand
- Diameter Post-Application (vein of the inner elbow): 55.04 pixels
- Diameter Pre-Application (vein of the inner elbow): 57.78 pixels
- Percent change (vein diameter) (vein of the inner elbow): (−4.74) Percent
- AVERAGE % CHANGE IN VEIN DIAMETER (vein of the inner elbow; Example 4, 70%): −13.2%
- vasodilation of the vein of the elbow (in words) (vein of the inner elbow; Example 4): constriction of the underlying vein

Compound: CC(=O)[O-].CC(=O)[O-].[Mg+2] [10 mM Mg acetate, Mg acetate]
- AVERAGE % CHANGE IN VEIN DIAMETER (vein of the inner elbow; [2]): 27.9%

Compound: [Cl-].[Cl-].[Mg+2] [MgCl2]
- VENOUS FILL TIME [1, 3]: 158 s
- % CHANGE FROM BASELINE (venous fill time) [1, 3]: 190%
- effect on venous fill time (in words) [1]: substantial increases in venous filling time compared to baseline control
- AVERAGE % CHANGE IN VEIN DIAMETER (vein of the inner elbow; [2]): 6.5%

Compound: O=S(=O)([O-])[O-].[Zn+2] [10 mM ZnSO4, ZnSO4]
- AVERAGE % CHANGE IN VEIN DIAMETER (vein of the inner elbow; [2]): −4.4%
- vasodilation of the vein of the elbow (in words) (vein of the inner elbow; Example 4): failed to demonstrate vasodilation

Compound: CC(=O)[O-].CC(=O)[O-].[Sr+2] [10 mM Sr acetate, Sr acetate]
- AVERAGE % CHANGE IN VEIN DIAMETER (vein of the inner elbow; [2]): 7.35%

Compound: O=S(=O)([O-])[O-].[Sr+2] [10 mM SrSO4, SrSO4]
- AVERAGE % CHANGE IN VEIN DIAMETER (vein of the inner elbow; [2]): 16.95%

Compound: O=S(=O)([O-])[O-].[Cu+2] [10 mM CuSO4, CuSO4]
- AVERAGE % CHANGE IN VEIN DIAMETER (vein of the inner elbow; [2]): 20.95%

Compound: O=S(=O)([O-])[O-].[Mg+2] [MgSO4, magnesium sulfate]
- effect on venous fill time (in words) [1]: substantial increases in venous filling time compared to baseline control
- Increase in Venous Diameter Following Hand Elevation (dorsal hand veins; MgSO4 10 mM in water, benzalkonium chloride 1%, maximal dilation after return to horizontal, control (dry swab) <10%): 30%
- Diameter Post-Application (vein of the inner elbow): 73.06 pixels
- Diameter Pre-Application (vein of the inner elbow): 65.86 pixels
- Percent change (vein diameter) (vein of the inner elbow): 10.93%
- AVERAGE % CHANGE IN VEIN DIAMETER (vein of the inner elbow; [2]): 30.0%
- AVERAGE % CHANGE IN VEIN DIAMETER (vein of the inner elbow; Example 4, 100 mM): 25.2%
- AVERAGE % CHANGE IN VEIN DIAMETER (vein of the inner elbow; Example 4, 1 M): 22.9%
- optimal concentration (vein of the inner elbow; Example 4, from 10 mM, 100 mM and 1 M tested): 10 mM
- vasodilation of the vein of the elbow (in words) (vein of the inner elbow; Example 4): powerful vasodilator

Compound: O=C([O-])CC(O)(CC(=O)[O-])C(=O)[O-].O=C([O-])CC(O)(CC(=O)[O-])C(=O)[O-].[Mg+2].[Mg+2].[Mg+2] [10 mM Mg citrate, Mg citrate]
- AVERAGE % CHANGE IN VEIN DIAMETER (vein of the inner elbow; [2]): 4.2%

Compound: [Cl-].[Cl-].[Sr+2] [10 mM SrCl2, SrCl2]
- AVERAGE % CHANGE IN VEIN DIAMETER (vein of the inner elbow; [2]): −6.0%
- vasodilation of the vein of the elbow (in words) (vein of the inner elbow; Example 4): did not show vasodilation

Compound: [Cl][Cu][Cl] [10 mM CuCl2, CuCl2]
- AVERAGE % CHANGE IN VEIN DIAMETER (vein of the inner elbow; [2]): 10.5%

Compound: CC(=O)[O-].CC(=O)[O-].[Ca+2] [10 mM Ca acetate, Ca acetate]
- AVERAGE % CHANGE IN VEIN DIAMETER (vein of the inner elbow; [2]): −0.5%
- vasodilation of the vein of the elbow (in words) (vein of the inner elbow; Example 4): did not show vasodilation

Compound: [Cl][Mn][Cl] [10 mM MnCl2, MnCl2]
- AVERAGE % CHANGE IN VEIN DIAMETER (vein of the inner elbow; [2]): 2.7%
- vasodilation of the vein of the elbow (in words) (vein of the inner elbow; Example 4): mild vasodilation

Compound: benzalkonium chloride [1% benzalkonium chloride, reference compound]
- Diameter Post-Application (vein of the inner elbow): 37.80 pixels
- Diameter Pre-Application (vein of the inner elbow): 34.41 pixels
- Percent change (vein diameter) (vein of the inner elbow): 9.85%

Compound: O=S(=O)([O-])[O-].[Mn+2] [10 mM MnSO4, MnSO4]
- AVERAGE % CHANGE IN VEIN DIAMETER (vein of the inner elbow; [2]): 0.0%

Compound: O=S(=O)([O-])[O-].[Ca+2] [10 mM CaSO4, CaSO4]
- AVERAGE % CHANGE IN VEIN DIAMETER (vein of the inner elbow; [2]): 17.7%

Compound: [Ca+2].[Cl-].[Cl-] [10 mM CaCl2, CaCl2]
- AVERAGE % CHANGE IN VEIN DIAMETER (vein of the inner elbow; [2]): 12.0%
